Results reported in patent US10538535B2, “Antitumoral compounds” (priority 2017, dated 2020).
Where two headings read alike, the source gives them in different places.

Legend:
A549 cells = assay: cells; conditions: Homo sapiens, A549, 72 h; for CC50: read-out: LC50; for IC (TGI): read-out: TGI
In short: (§1)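 SRB read-out after 72 h exposure; fixed untreated plate served as time-zero reference. Compounds ranged 10 to 0.003 μg/mL over ten 2/5 dilutions, triplicate wells, 1% final DMSO, DMEM with 10% FBS. Values via NCI algorithm, four-parameter logistic regression.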

HT29 cells = assay: cells; conditions: Homo sapiens, HT-29, 72 h; for CC50: read-out: LC50; for IC (TGI): read-out: TGI
In short: as §1

MDA-MB-231 cells = assay: cells; conditions: Homo sapiens, MDA-MB-231, 72 h; for CC50: read-out: LC50; for IC (TGI): read-out: TGI
In short: as §1

PSN1 cells = assay: cells; conditions: Homo sapiens, PSN1, 72 h; for CC50: read-out: LC50; for IC (TGI): read-out: TGI
In short: as §1

[1] = MTMD (Maximum Tolerated Multiple Dose) determination, iv weekly x3; type: in vivo; conditions: mice; iv/Q7dx3
Description: Female CD-1 or Athymic Nude-Fox1 nu/nu mice (Envigo) were utilized for all experiments. […] Animals were acclimated for five days prior to being individually tattoo-identified. Animal protocols were reviewed and approved according to the regional Institutional Animal Care and Use Committees.
Mice were randomly allocated into experimental groups and intravenously administered, once for the MTD (Maximum Tolerated Dose) determination or one administration a week during three consecutive weeks, for the MTMD (Maximum Tolerated Multiple Dose) determination study. The animals were administered with white formulation or with compound dissolved in the experimental formulation at different concentrations. The volume administered was always 10 mL/kg. Once administered, animals were monitored for clinical signs of systemic toxicity, changes in body weight and mortality up to 14 days after the administration.

MDA-MB-231 tumors = conditions: iv, 0.5 mg/kg
Description: (§2) Female athymic nu/nu mice (Harlan Laboratories Models, S. L. Barcelona, Spain or Envigo, Spain) were utilized for all experiments. Animal were housed in individually ventilated cages Sealsafe® Plus, Techniplast S.P.A.), up to ten per cage on a 12-hour light-dark cycle at 21-23° C. and 40-60% humidity. […] Animals were acclimated for at least 5 days prior to tumor implantation with a tumor cell suspension.
MDA-MB-231 cells were maintained in vitro at 37° C. with 5% CO2 in Dulbecco's Modified Eagle's Medium (Sigma-Aldrich, Co). Culture cells were passaged every 3 to 5 days upon reaching confluence.
(§3) Treatment tolerability was assessed by monitoring body weight evolution, clinical signs of systemic toxicity, as well as evidences of local damage in the injection site.
In xenograft studies with other cell lines: • Tumor volume was calculated using the equation (a·b^2)/2, where a: length (longest diameter) and b: width (shortest diameter) were measured in mm by using digital caliper (Fowler Sylvac, S235PAT).
(§4) Treatments producing >20% lethality and/or 20% net body weight loss were considered toxic.

H460 tumors = conditions: iv, 0.5 mg/kg
Description: as §2
H460 cells were maintained in vitro at 37° C. with 5% CO2 in Dulbecco's Modified Eagle's Medium (Sigma-Aldrich, Co). Culture cells were passaged every 3 to 5 days upon reaching confluence. Each animal was subcutaneously implanted (on the right flank using 26 G needle and a 1 cc syringe) at 4-6 weeks of age with 5×10^6 H460 cells suspended in 0.05 mL of a solution consisting of 50% Matrigel® (Corning Incorporated Life Sciences) and 50% medium without serum or antibiotics.
as §3, §4

HGC27 tumors = conditions: HGC27 xenograft
Description: as §2
HGC27 cells were maintained in vitro at 37° C. with 5% CO2 in Iscove's Modified Dulbecco's Medium (Sigma Aldrich, Co). Culture cells were passage every 3 to 5 days on reaching confluence. Each animal was subcutaneously implanted (on the right flank using 26 G needle and a 1 cc syringe) at 4-6 weeks of age with 5×10^6 HGC-27 cells suspended in 0.05 mL of a solution consisting of 50% Matrigel® (Corning Incorporated Life Sciences), 50% medium without serum or antibiotics.
as §3, §4

H82 tumors = assay: In vivo xenograft, human lung (SCLC) H82; conditions: iv weekly, 32 and ET-736 0.5 mg/Kg

SMILES: COc1c(C)cc2c(c1O)[C@@H]1[C@@H]3[C@@H]4SC[C@]5(NCCc6c5oc5ccccc65)C(=O)OC[C@@H](c5c6c(c(C)c(OC(C)=O)c54)OCO6)N3[C@@H](O)[C@H](C2)N1C [Compound 32]
- GI50 (A549 cells): 0.00688 µM
- CC50 (A549 cells): > 0.0132 µM
- IC (TGI) (A549 cells): > 0.0132 µM
- GI50 (HT29 cells): 0.00688 µM
- CC50 (HT29 cells): > 0.0132 µM
- IC (TGI) (HT29 cells): > 0.0132 µM
- GI50 (MDA-MB-231 cells): 0.00476 µM
- CC50 (MDA-MB-231 cells): > 0.0132 µM
- IC (TGI) (MDA-MB-231 cells): 0.0105 µM
- GI50 (PSN1 cells): 0.00609 µM
- CC50 (PSN1 cells): 0.012 µM
- IC (TGI) (PSN1 cells): 0.00834 µM
- MTMD [1]: 0.5 mg/kg
- Median Tumor Volume (MDA-MB-231 tumors; 0 h): 150.2 mm^3
- Median Tumor Volume (MDA-MB-231 tumors; 48 h): 233.6 mm^3
- Median Tumor Volume (MDA-MB-231 tumors; 120 h): 310.6 mm^3
- Median Tumor Volume (MDA-MB-231 tumors; 168 h): 386.1 mm^3
- Median Tumor Volume (MDA-MB-231 tumors; 336 h): 560.3 mm^3
- Median Tumor Volume (MDA-MB-231 tumors; 384 h): 649.5 mm^3
- Median Tumor Volume (MDA-MB-231 tumors; 456 h): 853.0 mm^3
- Median Tumor Volume (MDA-MB-231 tumors; 504 h): 1017.5 mm^3
- Median Tumor Volume (MDA-MB-231 tumors; 552 h): 1263.2 mm^3
- Median Tumor Volume (MDA-MB-231 tumors; 672 h): 1726.6 mm^3
- Median Tumor Volume (MDA-MB-231 tumors; 720 h): 1892.6 mm^3
- Median Tumor Volume (H460 tumors; 0 h): 183.9 mm^3
- Median Tumor Volume (H460 tumors; 48 h): 455.2 mm^3
- Median Tumor Volume (H460 tumors; 120 h): 784.8 mm^3
- Median Tumor Volume (H460 tumors; 168 h): 837.4 mm^3
- Median Tumor Volume (H460 tumors; 336 h): 1845.5 mm^3
- Median Tumor Volume (H460 tumors; 384 h): 2025.0 mm^3
- Median Tumor Volume (HGC27 tumors; Day 0): 194.8 mm^3
- Median Tumor Volume (HGC27 tumors; Day 2): 386.3 mm^3
- Median Tumor Volume (HGC27 tumors; Day 5): 551.3 mm^3
- Median Tumor Volume (HGC27 tumors; Day 7): 579.2 mm^3
- Median Tumor Volume (HGC27 tumors; Day 9): 665.8 mm^3
- Median Tumor Volume (HGC27 tumors; Day 12): 701.1 mm^3
- Median Tumor Volume (HGC27 tumors; Day 14): 814.5 mm^3
- Median Tumor Volume (HGC27 tumors; Day 16): 959.9 mm^3
- Median Tumor Volume (HGC27 tumors; Day 19): 1312.4 mm^3
- Median Tumor Volume (HGC27 tumors; Day 21): 1626.8 mm^3
- Median Tumor Volume (HGC27 tumors; Day 23): 1737.3 mm^3
- Median Tumor Volume (H82 tumors; Table 64, Day 0): 171.6 mm^3
- Median Tumor Volume (H82 tumors; Table 64, Day 2): 309.4 mm^3
- Median Tumor Volume (H82 tumors; Table 64, Day 5): 485.0 mm^3
- Median Tumor Volume (H82 tumors; Table 64, Day 7): 708.4 mm^3
- Median Tumor Volume (H82 tumors; Table 64, Day 9): 972.6 mm^3
- Median Tumor Volume (H82 tumors; Table 64, Day 12): 1101.6 mm^3
- Median Tumor Volume (H82 tumors; Table 64, Day 14): 1339.6 mm^3
- Median Tumor Volume (H82 tumors; Table 64, Day 16): 1430.3 mm^3
- Median Tumor Volume (H82 tumors; Table 64, Day 19): 1885.7 mm^3

SMILES: COc1c(C)cc2c(c1O)[C@@H]1[C@@H]3[C@@H]4SC[C@]5(NCCc6c5[nH]c5ccccc65)C(=O)OC[C@@H](c5c6c(c(C)c(OC(C)=O)c54)OCO6)N3[C@@H](O)[C@H](C2)N1C [ET-736, Ecteinascidin 736]
- GI50 (A549 cells): 0.0225 µM
- CC50 (A549 cells): > 0.132 µM
- IC (TGI) (A549 cells): 0.0477 µM
- GI50 (HT29 cells): 0.0212 µM
- CC50 (HT29 cells): > 0.132 µM
- IC (TGI) (HT29 cells): 0.0225 µM
- GI50 (MDA-MB-231 cells): 0.0212 µM
- CC50 (MDA-MB-231 cells): 0.0477 µM
- IC (TGI) (MDA-MB-231 cells): 0.0252 µM
- GI50 (PSN1 cells): 0.0397 µM
- CC50 (PSN1 cells): 0.102 µM
- IC (TGI) (PSN1 cells): 0.0596 µM
- MTMD [1]: 0.5 mg/kg
- Median Tumor Volume (MDA-MB-231 tumors; 0 h): 150.0 mm^3
- Median Tumor Volume (MDA-MB-231 tumors; 48 h): 237.7 mm^3
- Median Tumor Volume (MDA-MB-231 tumors; 120 h): 302.1 mm^3
- Median Tumor Volume (MDA-MB-231 tumors; 168 h): 364.9 mm^3
- Median Tumor Volume (MDA-MB-231 tumors; 336 h): 398.3 mm^3
- Median Tumor Volume (MDA-MB-231 tumors; 384 h): 447.2 mm^3
- Median Tumor Volume (MDA-MB-231 tumors; 456 h): 485.0 mm^3
- Median Tumor Volume (MDA-MB-231 tumors; 504 h): 536.3 mm^3
- Median Tumor Volume (MDA-MB-231 tumors; 552 h): 669.8 mm^3
- Median Tumor Volume (MDA-MB-231 tumors; 672 h): 1046.1 mm^3
- Median Tumor Volume (MDA-MB-231 tumors; 720 h): 1315.9 mm^3
- Median Tumor Volume (MDA-MB-231 tumors; 840 h): 2007.7 mm^3
- Median Tumor Volume (H460 tumors; 0 h): 185.8 mm^3
- Median Tumor Volume (H460 tumors; 48 h): 457.8 mm^3
- Median Tumor Volume (H460 tumors; 120 h): 732.8 mm^3
- Median Tumor Volume (H460 tumors; 168 h): 930.1 mm^3
- Median Tumor Volume (H460 tumors; 336 h): 1845.5 mm^3
- Median Tumor Volume (H460 tumors; 384 h): 2025.0 mm^3
- Median Tumor Volume (HGC27 tumors; Day 0): 195.9 mm^3
- Median Tumor Volume (HGC27 tumors; Day 2): 359.2 mm^3
- Median Tumor Volume (HGC27 tumors; Day 5): 537.6 mm^3
- Median Tumor Volume (HGC27 tumors; Day 7): 553.5 mm^3
- Median Tumor Volume (HGC27 tumors; Day 9): 604.7 mm^3
- Median Tumor Volume (HGC27 tumors; Day 12): 627.4 mm^3
- Median Tumor Volume (HGC27 tumors; Day 14): 648.0 mm^3
- Median Tumor Volume (HGC27 tumors; Day 16): 687.6 mm^3
- Median Tumor Volume (HGC27 tumors; Day 19): 760.0 mm^3
- Median Tumor Volume (HGC27 tumors; Day 21): 792.4 mm^3
- Median Tumor Volume (HGC27 tumors; Day 23): 818.9 mm^3
- Median Tumor Volume (HGC27 tumors; Day 26): 1026.1 mm^3
- Median Tumor Volume (HGC27 tumors; Day 28): 1354.9 mm^3
- Median Tumor Volume (H82 tumors; Table 64, Day 0): 170.0 mm^3
- Median Tumor Volume (H82 tumors; Table 64, Day 2): 334.4 mm^3
- Median Tumor Volume (H82 tumors; Table 64, Day 5): 539.4 mm^3
- Median Tumor Volume (H82 tumors; Table 64, Day 7): 836.4 mm^3
- Median Tumor Volume (H82 tumors; Table 64, Day 9): 1013.1 mm^3
- Median Tumor Volume (H82 tumors; Table 64, Day 12): 1290.9 mm^3
- Median Tumor Volume (H82 tumors; Table 64, Day 14): 1648.0 mm^3
